In paper PMC11921146, “Heterologous production of corosolic acid, a phyto-insulin, in agroinfiltrated Nicotiana benthamiana leaves” (Plant Biotechnology, 2024):

Columns and labels:
Assay in all cases: transient co-expression in N. benthamiana leaves, GC-MS of leaf extracts
Type in all cases: cell-based
Conditions in all cases: alpha-amyrin formed in situ by BfOSC3; co-expressed AtHMGR1cd-S577A and LjCPR2; C-28 oxidation
OeCYP716A48 = biological target: T1, OeCYP716A48 (Olea europaea, UniProt A0A090AQE0)
T1 construct: gene CYP716A48; full-length; transient expression in N. benthamiana leaves (pBYR2HS)

MtCYP716A12 [1] = biological target: T2, MtCYP716A12 (Medicago truncatula, UniProt Q2MJ20, D122Q)
T2 construct: gene CYP716A12; full-length; transient expression in N. benthamiana leaves (pBYR2HS)

MtCYP716A12 [2] = biological target: T3, MtCYP716A12 (Medicago truncatula, UniProt Q2MJ20)
T3 construct: gene CYP716A12; full-length; transient expression in N. benthamiana leaves (pBYR2HS)

MtCYP716A12 [3] = biological target: T4, MtCYP716A12 (Medicago truncatula, UniProt Q2MJ20, D122Q/Q358P)
T4 construct: gene CYP716A12; full-length; transient expression in N. benthamiana leaves (pBYR2HS)
T4 sequence (Q2MJ20 whole entry D122Q/Q358P, the tested form may be a part): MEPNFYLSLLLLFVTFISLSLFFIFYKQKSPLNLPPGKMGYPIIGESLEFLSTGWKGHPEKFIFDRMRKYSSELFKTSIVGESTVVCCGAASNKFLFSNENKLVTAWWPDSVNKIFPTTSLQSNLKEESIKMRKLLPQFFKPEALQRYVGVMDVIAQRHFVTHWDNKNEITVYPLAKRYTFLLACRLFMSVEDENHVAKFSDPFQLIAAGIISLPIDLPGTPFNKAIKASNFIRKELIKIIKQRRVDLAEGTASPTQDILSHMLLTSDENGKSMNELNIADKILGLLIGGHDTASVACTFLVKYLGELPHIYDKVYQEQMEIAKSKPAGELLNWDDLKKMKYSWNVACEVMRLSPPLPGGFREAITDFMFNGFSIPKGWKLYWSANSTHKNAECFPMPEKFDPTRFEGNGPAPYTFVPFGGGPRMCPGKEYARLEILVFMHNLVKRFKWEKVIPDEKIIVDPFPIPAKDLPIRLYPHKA

T3 sequence (Q2MJ20 whole entry, the tested form may be a part): as the sequence (Q2MJ20 whole entry D122Q/Q358P, the tested form may be a part) above, with Q122D, P358Q counted along it
T2 sequence (Q2MJ20 whole entry D122Q, the tested form may be a part): as the sequence (Q2MJ20 whole entry D122Q/Q358P, the tested form may be a part) above, with P358Q counted along it
T1 sequence (A0A090AQE0 entry or part of it): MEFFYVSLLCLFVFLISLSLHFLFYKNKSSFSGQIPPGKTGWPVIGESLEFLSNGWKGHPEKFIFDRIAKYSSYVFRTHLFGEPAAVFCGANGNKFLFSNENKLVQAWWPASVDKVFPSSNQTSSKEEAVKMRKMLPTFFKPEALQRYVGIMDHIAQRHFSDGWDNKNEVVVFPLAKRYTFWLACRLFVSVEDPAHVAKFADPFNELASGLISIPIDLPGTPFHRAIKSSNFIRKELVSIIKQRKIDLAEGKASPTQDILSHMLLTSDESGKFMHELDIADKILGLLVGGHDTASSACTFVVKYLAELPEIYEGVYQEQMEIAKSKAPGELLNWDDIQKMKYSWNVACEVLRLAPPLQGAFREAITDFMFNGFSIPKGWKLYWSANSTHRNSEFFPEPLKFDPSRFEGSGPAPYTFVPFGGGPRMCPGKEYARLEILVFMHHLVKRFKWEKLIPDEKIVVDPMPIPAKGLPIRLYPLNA

C[C@H]1[C@H](C)CC[C@]2(C)CC[C@]3(C)C(=CC[C@@H]4[C@@]5(C)CC[C@H](O)C(C)(C)[C@@H]5CC[C@]43C)[C@H]12 [compound 1, α-amyrin]
transient co-expression in N. benthamiana leaves, GC-MS of leaf extracts (OeCYP716A48): each of the candidate CYP716As were mixed and infiltrated into N. benthamiana leaves
transient co-expression in N. benthamiana leaves, GC-MS of leaf extracts (MtCYP716A12 [1]): each of the candidate CYP716As were mixed and infiltrated into N. benthamiana leaves
transient co-expression in N. benthamiana leaves, GC-MS of leaf extracts (MtCYP716A12 [2]): detected in the leaves expressing wild-type MtCYP716A12
transient co-expression in N. benthamiana leaves, GC-MS of leaf extracts (MtCYP716A12 [3]): each of the candidate CYP716As were mixed and infiltrated into N. benthamiana leaves
